This note sets out measurements from patent US9376470B2, “Polypeptide having angiogenesis-inducing activity and antibacterial activity, and use thereof for medical purposes” (FunPep Inc., priority 2008, dated 2016).

The subject of experiment [1] is human vascular endothelial cells and fibroblast cells (co-culture, Angiogenesis Kit KZ-1000). Particulars: polypeptide 10 μg/mL, day 11 of culture. The procedure: Using AG30-5C as a positive control, the angiogenesis-inducing activity of SR-1 and SR-2 was measured. […] As a negative control, polypeptide-free group (Control) was used.
Cells were cultured at 37° C. under 5% CO2 in a 24-well plate using the special media to which the polypeptide was added. The medium was replaced with a medium containing the same polypeptide on day 4, day 7 and day 9 of culture. On day 11 from the beginning of the culture, the medium was removed and staining was performed using a kit for staining lumina (for CD31 antibody staining) according to the following procedure.
The primary antibody (mouse anti-human CD31 antibody) was 4000-fold diluted with a blocking solution (Dulbecco's phosphate buffered saline (PBS(−)) containing 1% BSA). To each well, 0.5 mL of this primary antibody solution was added, and the plate was incubated for 60 minutes at 37° C. After the completion of the incubation, each well was washed totally 3 times with 1 mL of the blocking solution.
Then, 0.5 mL of a secondary antibody solution (goat anti-mouse IgG/alkaline phosphatase conjugate) 500-fold diluted with the blocking solution was added to each well. The plate was incubated for 60 minutes at 37° C., and thereafter each well was washed 3 times with 1 mL of distilled water. During that period, 2 tablets of BCIP/NBT were dissolved into distilled water, and the obtained solution was filtered through a filter having a pore size of 0.2 μm to prepare a substrate solution. To each well, 0.5 mL of the prepared BCIP/NBT substrate solution was added, and the plate was incubated at 37° C. until the lumina turned to deep purple (typically for 5-10 minutes). After the completion of the incubation, each well was washed 3 times with 1 mL of distilled water. After washing, the washing solution was removed by aspiration, and the plate was left to stand and dry naturally. After drying, photographs of each well were taken under a microscope.
Each of the obtained images was quantified using an angiogenesis quantification software. Computer analysis was carried out on various parameters.

The subject of experiment [2] is Enterobacteria (2): Enterobacter aerogenes JCM 1235. Briefly: Antibacterial activity, ATP assay (BacTiter-Glo). The experiment is classed as cell-based. The note with it: ATP assay concentration: peptides 10, TOB 4.0, CPFX 1.0, OX 4.0, MEPM 8.0 μg/ml. The procedure:
(§1) That is, using BacTiter-Glo Microbial Cell Viability Assay kit available from PROMEGA, the antibacterial activity of the peptides was evaluated from the viability of bacteria. […] With respect to the strains, Staphylococcus aureus ATCC29213 (S. aureus ATCC29213) as Gram-positive bacteria, or, alternatively, Pseudomonas aeruginosa (P. aeruginosa ATCC27853) as Gram-negative bacteria, was used. The bacteria were cultured in media for 3 to 4 hours, and thereafter absorbances at A600 were measured. Bacterial suspensions were diluted with Mueller-Hinton broth (MHB) according to McFarland #0.5. Each strain was added so as to attain about 0.5−1×10^5 CFU/mL (final concentration) in terms of Escherichia coli. […] A solution to which the peptides were not added was considered as a negative control, and a solution to which tobramycin (TOB) was added was considered as a positive control. […] Relative values were calculated by comparison with the negative control, and these values were regarded as the viability. […] ATP (%) of the antibacterial activity was measured in the same manner as mentioned above, and the “minimum inhibitory concentration (MIC)” was measured as follows. MIC is the lowest concentration of an agent that may inhibit the growth of a bacterium. MIC is used as a parameter for the efficacy of an antibacterial agent, for the strength of bacterial sensitivity, or the like. The bacteria can grow (proliferate) when the concentration is not higher than MIC, and cannot grow when the concentration is higher than MIC. Its measurement is carried out according to a method defined as a standard method by Japanese Society of Chemotherapy or CLINICAL AND LABORATORY […] (CLSI), but, in this Example, its measurement was carried out by a broth microdilution method in accordance with “M100-S17/M7-A7” (Performance Standards for Antimicrobial Susceptibility Testing; Seventeenth Informational Supplement, Vol. 27 No. 1) published by CLSI on January, 2007. That is, sensitivity test of agents was carried out using a microtiter plate or test tubes. With respect to each strain, Escherichia coli: ATCC 25922 (Escherichia coli ATCC 25922), Pseudomonas aeruginosa: ATCC 27853 (Pseudomonas aeruginosa ATCC 27853), Staphylococcus aureus: ATCC29213 (Staphylococcus aureus ATCC29213), Klebsiella pneumoniae: JCM 1662 (Klebsiella pneumoniae JCM 1662), enterobacteria (1): JCM 1232 (Enterobacter cloacae JCM 1232), enterobacteria (2): JCM 1235 (Enterobacter aerogenes JCM 1235), and Staphylococcus epidermidis: JCM 2414 (Staphylococcus epidermidis JCM 2414), were used. […] As the concentrations of the agents in ATP assay, the concentrations as described in the Tables were used.

For experiment [3], the system named is Staphylococcus epidermidis JCM 2414. As to the kind of experiment: Antibacterial activity, ATP assay (BacTiter-Glo). The note with it: ATP assay concentration: peptides 10, TOB 1.0, CPFX 0.5, OX 0.5, MEPM 0.125 μg/ml. Format: cell-based. The procedure: as §1
Experiment [4] has as its system Klebsiella pneumoniae JCM 1662. As to the kind of experiment: Antibacterial activity, ATP assay (BacTiter-Glo). Format: cell-based. Particulars: ATP assay concentration: peptides 10, TOB 4.0, CPFX 1.0, OX 0.5, MEPM 8.0 μg/ml. The procedure: as §1
The subject of experiment [5] is Escherichia coli ATCC 25922. Briefly: Antibacterial activity, ATP assay (BacTiter-Glo). Particulars: ATP assay concentration: peptides 10, TOB 1.0, CPFX 0.015, OX 0.5, MEPM 0.1 μg/ml. The experiment is classed as cell-based. The procedure: as §1
Experiment [6] relates to Pseudomonas aeruginosa ATCC27853. Briefly: Antibacterial activity, ATP assay (BacTiter-Glo). The experiment is classed as cell-based. Particulars: Table 4-1; ATP assay concentration: peptides 10, TOB 1.0, CPFX 1.0, OX 0.5, MEPM 1.0 μg/ml. The procedure:
The antibacterial activity of the polypeptides was measured using an ATP assay method. That is, using BacTiter-Glo Microbial Cell Viability Assay kit available from PROMEGA, the antibacterial activity of the peptides was evaluated from the viability of bacteria. […] With respect to the strains, Staphylococcus aureus ATCC29213 (S. aureus ATCC29213) as Gram-positive bacteria, or, alternatively, Pseudomonas aeruginosa (P. aeruginosa ATCC27853) as Gram-negative bacteria, was used. The bacteria were cultured in media for 3 to 4 hours, and thereafter absorbances at A600 were measured. Bacterial suspensions were diluted with Mueller-Hinton broth (MHB) according to McFarland #0.5. Each strain was added so as to attain about 0.5−1×10^5 CFU/mL (final concentration) in terms of Escherichia coli. […] A solution to which the peptides were not added was considered as a negative control, and a solution to which tobramycin (TOB) was added was considered as a positive control. […] Relative values were calculated by comparison with the negative control, and these values were regarded as the viability. ATP (%) of the antibacterial activity was measured in the same manner as mentioned above, and the “minimum inhibitory concentration (MIC)” was measured as follows. MIC is the lowest concentration of an agent that may inhibit the growth of a bacterium. MIC is used as a parameter for the efficacy of an antibacterial agent, for the strength of bacterial sensitivity, or the like. The bacteria can grow (proliferate) when the concentration is not higher than MIC, and cannot grow when the concentration is higher than MIC. Its measurement is carried out according to a method defined as a standard method by Japanese Society of Chemotherapy or CLINICAL AND LABORATORY […] (CLSI), but, in this Example, its measurement was carried out by a broth microdilution method in accordance with “M100-S17/M7-A7” (Performance Standards for Antimicrobial Susceptibility Testing; Seventeenth Informational Supplement, Vol. 27 No. 1) published by CLSI on January, 2007. That is, sensitivity test of agents was carried out using a microtiter plate or test tubes. With respect to each strain, Escherichia coli: ATCC 25922 (Escherichia coli ATCC 25922), Pseudomonas aeruginosa: ATCC 27853 (Pseudomonas aeruginosa ATCC 27853), Staphylococcus aureus: ATCC29213 (Staphylococcus aureus ATCC29213), Klebsiella pneumoniae: JCM 1662 (Klebsiella pneumoniae JCM 1662), enterobacteria (1): JCM 1232 (Enterobacter cloacae JCM 1232), enterobacteria (2): JCM 1235 (Enterobacter aerogenes JCM 1235), and Staphylococcus epidermidis: JCM 2414 (Staphylococcus epidermidis JCM 2414), were used. […] As the concentrations of the agents in ATP assay, the concentrations as described in the Tables were used.

Peptide text beside a SMILES is read from it.

Consider `CC[C@H](C)[C@H](NC(=O)[C@H](CC(C)C)NC(=O)[C@H](CCCCN)NC(=O)[C@H](CC(C)C)NC(=O)[C@@H](N)CCSC)C(=O)N[C@@H](Cc1ccccc1)C(=O)N[C@@H](CC(C)C)C(=O)N[C@@H](Cc1c[nH]cn1)C(=O)N[C@@H](CCCNC(=N)N)C(=O)N[C@@H](CC(C)C)C(=O)N[C@@H](CCCCN)C(=O)N[C@@H](CCCNC(=N)N)C(=O)N[C@@H](CCSC)C(=O)N[C@@H](CCCNC(=N)N)C(=O)N[C@@H](CCCCN)C(=O)N[C@@H](CCCNC(=N)N)C(=O)N[C@@H](CC(C)C)C(=O)N[C@@H](CCCCN)C(=O)N[C@@H](CCCNC(=N)N)C(=O)N[C@@H](CCCCN)C(=O)N[C@@H](CC(C)C)C(=O)N[C@@H](CCCNC(=N)N)C(=O)N[C@@H](Cc1ccccc1)C(=O)N[C@@H](Cc1c[nH]c2ccccc12)C(=O)N[C@@H](Cc1c[nH]cn1)C(=O)N[C@@H](CCCNC(=N)N)C(=O)N[C@@H](CCCCN)C(=O)N[C@@H](CCCNC(=N)N)C(=O)N[C@@H](Cc1ccc(O)cc1)C(=O)N[C@@H](CCCCN)C(=O)O` [AG30-5C, reference compound] (H-MLKLIFLHRLKRMRKRLKRKLRFWHRKRYK-OH; N-terminus and C-terminus assumed), for which the “The Length of Lumina (Percentage when taking Control as 100)” value in experiment [1] is given as 119.1%.
Turning to `O=C(O)c1cn(C2CC2)c2cc(N3CCNCC3)c(F)cc2c1=O` [CPFX, ciprofloxacin, reference compound], the “ATP (%) mean, Enterobacteria (2)” value in experiment [2] stood at 3.2%. The “ATP (%) mean, Staphylococcus epidermidis” value in experiment [3] is listed as 7.3%. In experiment [4], the “ATP (%) mean, Klebsiella pneumoniae” value was 8.2%. For the same compound, the “ATP (%) mean, Escherichia coli” value in experiment [5] is 15.4%. In addition, the “ATP (%) mean, Pseudomonas aeruginosa” value in experiment [6] came out at 2.3%.
